# Test results: patent US20100286280A1, “INHIBITORS OF EPPIN/SEMENOGELIN BINDING AS MALE CONTRACEPTIVES” (The University of North Carolina at Chapel Hill, priority 2007, published 2010)
# “Also recorded” adds a separate entry of the source.
# Key:
# [1] = molecular target: T1, recombinant Eppin binding to recombinant semenogelin (Homo sapiens, UniProt O95925); assay: Eppin-semenogelin in vitro binding assay (96-well ELISA format, absorption at 450 nm); details: Eppin preincubated with compound dilutions starting at 40 μg/ml; OD 450 nm (FIG. 4)
# T1 construct: made in house; host or cells: E. coli strain M15 [pREP-4]
# T1 sequence (O95925 22-133): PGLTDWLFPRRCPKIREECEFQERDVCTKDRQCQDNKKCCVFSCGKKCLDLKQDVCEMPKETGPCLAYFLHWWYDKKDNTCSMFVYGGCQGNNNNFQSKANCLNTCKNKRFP
# Procedure: In one embodiment, His-tagged recombinant semenogelin is bound to the individual wells of the plate, FLAG-tagged recombinant Eppin is bound to the semenogelin. The recombinant Eppin and recombinant semenogelin will form a complex. Compounds are then individually added to the wells of the plate and allowed to interfere with the Eppin-semenogelin complex formation. An anti-FLAG antibody (such as the M2 antibody sold by Sigma-Aldrich) is then added to the wells of the plate. The inhibition of the binding of Eppin to semenogelin is determined by looking for changes in Eppin-semenogelin binding when the anti-FLAG antibody (such as those used in commercially-available ELISA assays) is added. One can detect the binding of the anti-FLAG antibody to the FLAG tagged Eppin, for example, by looking at the absorption at 450 nm. In another embodiment, compounds are incubated with FLAG-tagged recombinant Eppin before being added to Sg. The anti-FLAG antibody is added after the Eppin-compound mixtures are added to the wells of the plate.
# Recombinant Eppin and semenogelin are as described in Wang et al., Biology of Reproduction, 72:1064-1070 (2005). The recombinant Eppin used in the assays described herein has been tagged with a FLAG tag. The recombinant semenogelin is a His-tagged recombinant protein of the fragment of semenogelin starting with amino acid 164 and continuing to amino acid 283. […]
# [2] = tested on: human spermatozoa; assay: Human sperm motility assay with Compound A4; type: cell-based
# Text: Human spermatozoa were obtained from the UNC-Hospital clinic, washed and used for testing in a motility assay. Compound A4 reduced the total number of motile sperm in an ejaculate to <10% within one hour. The data are shown below in FIGS. 5 and 6, and in Tables 2 and 3.
compound,measurement,setting,value
Cl.NC(=O)CNCC(N)=O [Compound A4],inhibition of Eppin-semenogelin binding,[1],effective at inhibiting this binding in a dose dependent manner; also recorded: inhibited Eppin-semenogelin binding in a dose dependent manner
same,Velocity,"[2]; Table 2, swim up + A4 + 1 hr",15 μm/sec
same,total distance,"[2]; Table 2, swim up + A4 + 1 hr",222 μm
same,% Motility,"[2]; Table 3, swim up + 1 hour",7%
same,Average velocity,"[2]; Table 3, swim up + 1 hour",14.9 μm/sec
same,Distance,"[2]; Table 3, swim up + 1 hour",222 μm
same,Straight distance,"[2]; Table 3, swim up + 1 hour",48.7 μm
same,inhibition of sperm motility (in words),[2]; human spermatozoa,"inhibits their motility, significantly reducing their forward velocity and distance traveled; also recorded: effective at inhibiting sperm motility"
same,total number of motile sperm in an ejaculate,[2]; within one hour,< 10%
